{
  "source": "paper PMC4471902",
  "about": "“Block of NMDA receptor channels by endogenous neurosteroids: implications for the agonist induced conformational states of the channel vestibule” (Scientific Reports, 2015)",
  "key": {"[1]": {"system": "GluR0 (potassium-selective prokaryotic glutamate receptor)", "assay": "Whole-cell patch-clamp of GluR0 receptor responses in transfected HEK293 cells", "type": "cell-based, Synechocystis PCC 6803", "conditions": "1 mM glutamate, PA-S 300 µM", "text": "Human embryonic kidney (HEK293) cells were transfected with expression vectors containing: GluN1–1a (GenBank accession number U08261)[52]; GluN2B (GenBank accession number M91562); GluN1-4a(F484A), (generous gift from Dr. J. J. Woodward)[53] (Smothers & Woodward, 2009); GluN3A (generous gift from Dr. S. A. Lipton)[54] (GenBank accession number NM_138546); GluN1ΔN with deleted 354 amino acids in the NTD (32 to 386); GluN1ΔC with an introduced stop codon in 838 of the CTD GluN2BΔN) with deleted 354 amino acids in the NTD (32 to 386); GluN2BΔC with an introduced stop codon in 844 of the CTD[55]; GluR0 (GenBank accession number Synechocystis PCC 6803) (generous gift from Dr. M. L. Mayer)[18]; and green fluorescent protein (GFP) (pQBI 25, Takara, Tokyo, Japan) genes, as described previously. The Quick-Change site-directed mutagenesis kit (Agilent Technologies, Santa Clara, CA, USA) was used to generate specific point mutations in the M1/M3 region according to the manufacturer’s instructions using manually designed primers purchased from Sigma. Modified DNA plasmids were transformed into competent XL10-Gold E.coli cells, positive clones were selected, and isolated DNA was sequenced. […] All mutations were verified by DNA sequencing (Macrogen, Seoul, Korea or SeQme, Dobris, Czech Republic). […]"}, "[2]": {"biological_target": "T1, GluN1(T648A)/GluN2B receptors (Rattus norvegicus, UniProt P35439+Q00960, T648A)", "T1 construct": "expressed in transfected cells; host or cells: HEK293", "T1 sequence (Q00960 27-1482, other chains not shown)": "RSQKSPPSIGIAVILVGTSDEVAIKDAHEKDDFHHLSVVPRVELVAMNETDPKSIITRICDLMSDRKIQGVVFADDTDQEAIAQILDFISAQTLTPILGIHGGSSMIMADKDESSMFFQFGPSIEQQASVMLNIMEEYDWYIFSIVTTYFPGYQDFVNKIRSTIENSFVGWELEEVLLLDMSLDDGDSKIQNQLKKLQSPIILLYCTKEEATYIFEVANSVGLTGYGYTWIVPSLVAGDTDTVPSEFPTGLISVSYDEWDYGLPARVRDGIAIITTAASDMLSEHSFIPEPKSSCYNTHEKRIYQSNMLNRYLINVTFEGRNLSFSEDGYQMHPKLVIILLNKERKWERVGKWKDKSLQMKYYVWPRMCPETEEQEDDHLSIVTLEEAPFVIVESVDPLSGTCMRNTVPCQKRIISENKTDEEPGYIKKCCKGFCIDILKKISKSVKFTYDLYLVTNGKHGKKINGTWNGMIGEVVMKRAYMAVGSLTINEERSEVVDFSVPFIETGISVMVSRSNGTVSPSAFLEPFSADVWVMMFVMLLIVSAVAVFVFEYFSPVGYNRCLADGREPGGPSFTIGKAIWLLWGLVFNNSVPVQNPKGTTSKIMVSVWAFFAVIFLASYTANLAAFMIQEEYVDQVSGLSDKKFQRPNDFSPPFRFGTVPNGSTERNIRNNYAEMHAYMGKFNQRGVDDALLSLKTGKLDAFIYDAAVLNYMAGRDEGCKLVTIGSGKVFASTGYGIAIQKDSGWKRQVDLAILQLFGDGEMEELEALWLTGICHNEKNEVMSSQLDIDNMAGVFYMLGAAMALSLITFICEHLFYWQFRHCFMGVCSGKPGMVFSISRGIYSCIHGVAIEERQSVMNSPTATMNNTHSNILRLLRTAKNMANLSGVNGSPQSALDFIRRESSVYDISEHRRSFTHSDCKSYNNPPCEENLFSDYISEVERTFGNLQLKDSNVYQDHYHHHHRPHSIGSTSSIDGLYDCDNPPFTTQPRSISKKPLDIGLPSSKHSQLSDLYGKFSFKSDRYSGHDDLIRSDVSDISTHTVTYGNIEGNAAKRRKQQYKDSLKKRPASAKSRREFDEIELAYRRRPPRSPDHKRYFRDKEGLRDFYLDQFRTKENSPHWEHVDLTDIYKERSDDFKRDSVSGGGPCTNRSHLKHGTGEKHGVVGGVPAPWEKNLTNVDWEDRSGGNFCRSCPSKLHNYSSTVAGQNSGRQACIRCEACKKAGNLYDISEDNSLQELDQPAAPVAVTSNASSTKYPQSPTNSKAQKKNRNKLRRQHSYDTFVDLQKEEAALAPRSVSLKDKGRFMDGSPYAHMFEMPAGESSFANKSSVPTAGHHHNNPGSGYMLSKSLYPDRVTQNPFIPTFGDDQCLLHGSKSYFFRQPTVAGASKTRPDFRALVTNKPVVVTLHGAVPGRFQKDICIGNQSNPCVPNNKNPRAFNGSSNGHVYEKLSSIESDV", "assay": "Whole-cell patch-clamp of GluN1(T648A)/GluN2B receptor responses in HEK293 cells", "type": "cell-based", "conditions": "for inhibition at 200 µM: HEK293, PA-S 200 μM", "text": "(§1) Human embryonic kidney (HEK293) cells were transfected with expression vectors containing: GluN1–1a (GenBank accession number U08261)[52]; GluN2B (GenBank accession number M91562); GluN1-4a(F484A), (generous gift from Dr. J. J. Woodward)[53] (Smothers & Woodward, 2009); GluN3A (generous gift from Dr. S. A. Lipton)[54] (GenBank accession number NM_138546); GluN1ΔN with deleted 354 amino acids in the NTD (32 to 386); GluN1ΔC with an introduced stop codon in 838 of the CTD GluN2BΔN) with deleted 354 amino acids in the NTD (32 to 386); GluN2BΔC with an introduced stop codon in 844 of the CTD[55]; GluR0 (GenBank accession number Synechocystis PCC 6803) (generous gift from Dr. M. L. Mayer)[18]; and green fluorescent protein (GFP) (pQBI 25, Takara, Tokyo, Japan) genes, as described previously. The Quick-Change site-directed mutagenesis kit (Agilent Technologies, Santa Clara, CA, USA) was used to generate specific point mutations in the M1/M3 region according to the manufacturer’s instructions using manually designed primers purchased from Sigma. Modified DNA plasmids were transformed into competent XL10-Gold E.coli cells, positive clones were selected, and isolated DNA was sequenced. […] All mutations were verified by DNA sequencing (Macrogen, Seoul, Korea or SeQme, Dobris, Czech Republic). The amino acids are numbered according to the full-length protein, including the signal peptide, with the initiating methionine as 1.\n(§2) Experiments were performed 24–48 hrs after transfection on cells transfected with GluN1/GluN2B/GFP plasmids. Whole-cell voltage-clamp recordings from HEK293 cells were made with a patch-clamp amplifier (Axopatch 200B; Axon Instruments, Inc., Foster City, CA) after a capacitance and series resistance (<10 MΩ) compensation of 80–90%.\n(§3) Patch pipettes (3–5 MΩ) were filled with a solution containing (in mM): 120 gluconic acid, 15 CsCl, 10 BAPTA, 10 HEPES, 3 MgCl2, 1 CaCl2, and 2 ATP-Mg salt (pH-adjusted to 7.2 with CsOH). When GluR0 receptor responses were studied, intracellular solution contained (in mM): 120 gluconic acid, 15 KCl, 10 BAPTA, 10 HEPES, 3 MgCl2, 1 CaCl2, and 2 ATP-Mg salt (pH-adjusted to 7.2 with KOH). Extracellular solution (ECS) contained the following (in mM): 160 NaCl, 2.5 KCl, 10 HEPES, 10 glucose, 0.2 EDTA, and 0.7 CaCl2 (pH-adjusted to 7.3 with NaOH). Glycine (10 μM), an NMDAR co-agonist, was present in the control and test solutions. All (PA-S and PA-A) solutions were made from freshly prepared 20 mM PA-S and 5 mM PA-A stock in dimethyl sulfoxide (DMSO). The final dilution to ECS was made at 50 °C and followed by 1 min sonication (SONOREX DIGITEC DT 100/H, BADELIN electronic, Berlin, Germany). The same concentration of DMSO was added to all extracellular solutions. Drug applications were made with a microprocessor-controlled multibarrel fast-perfusion system. Changes in the glutamate-induced current in HEK293 cells transfected by GluN1/GluN2B subunits were used to estimate the rate of solution exchange around the cell. Standard ECS was switched to the ECS diluted by water (50%) during glutamate application. The osmolarity was adjusted by sucrose to match the standard ECS. Glutamate (1 mM), glycine (10 μM) and pH was maintained constant in both solutions. The solution exchange rate was estimated to be τ = 4.3 ± 0.3 ms (n = 6) for lifted cells and τ = 12.0 ± 0.9 ms (n = 6) for the attached cells.\nThe IC50 was determined from a single dose of a steroid using the formula [drawing 1] where I is the relative degree of inhibition and [steroid] is the steroid concentration used. Calculations of IC50 were made assuming 100% inhibition at saturating steroid concentration this is valid for both PA-S and PA-A[12][13]. […]"}, "GluN2B(Y646A)": {"biological_target": "T2, GluN2B(Y646A) (Rattus norvegicus, UniProt P35439+Q00960, Y646A)", "T2 construct": "expressed in transfected cells; host or cells: HEK293", "T2 sequence (Q00960 27-1482 Y646A, other chains not shown)": "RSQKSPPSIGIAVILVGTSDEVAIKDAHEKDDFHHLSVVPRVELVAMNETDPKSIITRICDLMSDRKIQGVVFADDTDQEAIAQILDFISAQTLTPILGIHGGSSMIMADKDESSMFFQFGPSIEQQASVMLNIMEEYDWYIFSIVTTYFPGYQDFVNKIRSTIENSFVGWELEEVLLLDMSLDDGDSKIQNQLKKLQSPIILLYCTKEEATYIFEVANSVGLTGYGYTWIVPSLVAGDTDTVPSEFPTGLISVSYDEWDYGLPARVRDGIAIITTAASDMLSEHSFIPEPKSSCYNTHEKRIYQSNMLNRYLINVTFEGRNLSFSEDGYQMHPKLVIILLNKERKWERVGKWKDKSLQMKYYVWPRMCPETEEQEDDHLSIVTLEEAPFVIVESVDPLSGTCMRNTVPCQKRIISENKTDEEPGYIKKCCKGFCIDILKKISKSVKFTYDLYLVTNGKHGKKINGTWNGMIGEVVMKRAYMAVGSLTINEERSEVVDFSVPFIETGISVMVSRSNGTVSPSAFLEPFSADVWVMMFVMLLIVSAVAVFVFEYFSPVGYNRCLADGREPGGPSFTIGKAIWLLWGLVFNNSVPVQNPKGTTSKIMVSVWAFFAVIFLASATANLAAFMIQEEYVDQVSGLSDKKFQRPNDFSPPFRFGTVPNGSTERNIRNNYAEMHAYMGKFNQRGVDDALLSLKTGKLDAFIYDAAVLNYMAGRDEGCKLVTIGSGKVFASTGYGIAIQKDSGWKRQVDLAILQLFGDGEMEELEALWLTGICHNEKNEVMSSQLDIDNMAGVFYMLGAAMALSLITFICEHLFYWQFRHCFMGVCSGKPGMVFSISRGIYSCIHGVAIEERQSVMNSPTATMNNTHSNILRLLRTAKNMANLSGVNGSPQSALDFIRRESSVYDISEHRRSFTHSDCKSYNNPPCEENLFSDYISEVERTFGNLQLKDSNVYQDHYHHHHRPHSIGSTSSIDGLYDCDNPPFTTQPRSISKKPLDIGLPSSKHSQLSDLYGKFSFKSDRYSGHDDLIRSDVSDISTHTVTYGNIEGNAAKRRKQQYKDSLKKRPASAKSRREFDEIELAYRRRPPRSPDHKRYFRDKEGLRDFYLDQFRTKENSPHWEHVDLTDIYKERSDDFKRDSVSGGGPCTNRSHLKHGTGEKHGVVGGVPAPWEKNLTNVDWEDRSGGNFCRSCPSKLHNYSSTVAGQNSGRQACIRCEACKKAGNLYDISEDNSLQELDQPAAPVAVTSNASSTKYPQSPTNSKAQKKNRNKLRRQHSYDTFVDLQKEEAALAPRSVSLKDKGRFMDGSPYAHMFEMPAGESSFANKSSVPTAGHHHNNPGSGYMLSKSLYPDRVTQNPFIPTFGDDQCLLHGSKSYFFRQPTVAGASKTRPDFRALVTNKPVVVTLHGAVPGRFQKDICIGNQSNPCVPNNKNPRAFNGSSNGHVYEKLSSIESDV", "assay": "Whole-cell patch-clamp of GluN1/GluN2B(Y646A) receptor responses in HEK293 cells", "type": "cell-based", "text": "Human embryonic kidney (HEK293) cells were transfected with expression vectors containing: GluN1–1a (GenBank accession number U08261)[52]; GluN2B (GenBank accession number M91562); GluN1-4a(F484A), (generous gift from Dr. J. J. Woodward)[53] (Smothers & Woodward, 2009); GluN3A (generous gift from Dr. S. A. Lipton)[54] (GenBank accession number NM_138546); GluN1ΔN with deleted 354 amino acids in the NTD (32 to 386); GluN1ΔC with an introduced stop codon in 838 of the CTD GluN2BΔN) with deleted 354 amino acids in the NTD (32 to 386); GluN2BΔC with an introduced stop codon in 844 of the CTD[55]; GluR0 (GenBank accession number Synechocystis PCC 6803) (generous gift from Dr. M. L. Mayer)[18]; and green fluorescent protein (GFP) (pQBI 25, Takara, Tokyo, Japan) genes, as described previously. The Quick-Change site-directed mutagenesis kit (Agilent Technologies, Santa Clara, CA, USA) was used to generate specific point mutations in the M1/M3 region according to the manufacturer’s instructions using manually designed primers purchased from Sigma. Modified DNA plasmids were transformed into competent XL10-Gold E.coli cells, positive clones were selected, and isolated DNA was sequenced. […]\n(§4) The IC50 was determined from a single dose of a steroid using the formula [drawing 1] where I is the relative degree of inhibition and [steroid] is the steroid concentration used. […]"}, "[3]": {"system": "mutated GluN1/GluN2B receptors", "assay": "PA-S sensitivity of NMDARs mutated in the M1 and M3 regions of GluN1 and GluN2B (HEK293 cells)", "type": "cell-based", "text": "as §1, §2\nas §3, with “The solution exchange rate was estimated to be τ = 4.3 ± 0.3 ms (n = 6) for lifted cells and τ = 12.0 ± 0.9 ms (n = 6) for the attached cells.” left out\nas §4"}, "[4]": {"system": "non-transfected HEK293 cells", "assay": "Membrane capacitance measurement of steroid association with and exit from the membrane", "type": "cell-based, Human", "text": "Membrane capacitance was estimated by examining the integrated capacitive current (sampled at 30 kHz at 10 kHz filter cutoff frequency) evoked by depolarizing or hyperpolarizing voltage pulses from −60 mV to +30 mV for 3 ms delivered at 200 Hz."}},
  "note": "Where “and” joins values, the source holds several entries; their conditions need not be identical. Identical values can stand only once. Counter-ions that a name gives are not always drawn. Like-named read-outs stand apart in the source and are kept apart here.",
  "data": [
    {"smiles": "CC(=O)[C@H]1CC[C@H]2[C@@H]3CC[C@@H]4C[C@H](OS(=O)(=O)O)CC[C@]4(C)[C@H]3CC[C@]12C", "note": "[PA-S, 20-oxo-5β-pregnan-3α-yl sulfate]", "values": [
      {"measurement": "effect on glutamate-induced responses", "setting": "[1]", "result": "inhibited"},
      {"measurement": "IC50", "setting": "[2]", "result": "758 ± 27", "unit": "µM"},
      {"measurement": "voltage dependence of steroid inhibition", "setting": "[2]", "result": "voltage independent"},
      {"measurement": "inhibition at 200 µM", "setting": "[2]; read-out: degree of inhibition of agonist-evoked currents", "result": "13.6 ± 0.9", "unit": "%"},
      {"measurement": "inhibition at 200 µM", "setting": "[2]; read-out: degree of inhibition of spontaneous currents", "result": "13.8 ± 0.7", "unit": "%"},
      {"measurement": "intercept of linear fit of mean inhibition versus holding potential", "setting": "[2]; PA-S 200 µM, 1 mM glutamate", "result": 15.8},
      {"measurement": "IC50", "setting": "GluN2B(Y646A)", "result": "4.3 ± 0.7", "unit": "µM"},
      {"measurement": "difference of PA-S IC50 between GluN1(T648A)/GluN2B and GluN1/GluN2B(T647A) receptors", "setting": "[3]", "result": 5.4, "unit": "fold"},
      {"measurement": "change of PA-S IC50 relative to the WT receptor value", "setting": "[3]; GluN1: F654A, GluN2B: P547A/S548A, F550A, L551A/E552A, F637A/F638A, Y646A, M654A, E657A/E658A", "result": "less than half"},
      {"measurement": "change of PA-S IC50 relative to the WT receptor value", "setting": "[3]; GluN1: Y647A, T648A, A649T, N650A/L651A, V656A, GluN2B: S645A, T647A, A652T", "result": "over two-fold"},
      {"measurement": "IC50", "setting": "[3]; residues whose mutation decreased the IC50 by half (GluN1: F654A; GluN2B: P547A/S548A, F550A, L551A/E552A, F637A/F638A, Y646A, M654A, E657A/E658A)", "result": "< 21", "unit": "µM"},
      {"measurement": "IC50", "setting": "[3]; residues whose mutation increased the IC50 more than two-fold (GluN1: Y647A, T648A, A649T, N650A/L651A, V656A; GluN2B: S645A, T647A, A652T)", "result": "> 84", "unit": "µM"},
      {"measurement": "fast dissociation time constant from the membrane", "setting": "[4]", "result": "≤ 1", "unit": "ms"},
      {"measurement": "koff (rate of steroid dissociation from the membrane)", "setting": "[4]", "result": "≥ 1000", "unit": "s⁻¹"},
      {"measurement": "capacitance increase during the steroid application", "setting": "[4]; PA-S 150 μM for 1 s, attached cells", "result": "~ 3%"},
      {"measurement": "capacitance return after steroid washout As", "setting": "[4]; PA-S 150 μM, attached cells", "result": "41 ± 2", "unit": "%"},
      {"measurement": "capacitance return after steroid washout τf", "setting": "[4]; PA-S 150 μM, attached cells", "result": "< 5", "unit": "ms"},
      {"measurement": "capacitance return after steroid washout τs", "setting": "[4]; PA-S 150 μM, attached cells", "result": "222 ± 8 ms and 244 ms"},
      {"measurement": "capacitance change after PA-S washout τ", "setting": "[4]; lifted cells, only fast component resolved", "result": "< 5", "unit": "ms"}
    ]}
  ]
}
